The results in this text go back to patent US20060269978A1, “Method and device for monitoring platelet function” (priority 2005, published 2006).

This assay has as its system platelet function. In words: Platelet Reactivity Test (PRT) on fingerprick whole blood of volunteers before and after taking aspirin. The assay is classed as in vivo. The following applies: human volunteers after taking aspirin, single-passageway cartridge with spring, most volunteers. The procedure:
The PRT test is used to activate platelet gel formations using a small (20 microliter) whole blood sample to help identify proper platelet function in the absence of platelet drug therapy and to identify inhibited platelet function in the presence of platelet drug therapy. The test is performed by running a small quantity of blood through a channel restriction that will induce the formation of platelet gels and trap them in a focused area similar to the way platelets are activated and focused in the body.
In use, the cartridge is secured in instrument 400 and preheated for three to five minutes at 33C. The cartridge is then removed from the instrument 400 and 40 μl of blood previously taken from a subject by a pinprick is placed in capillary tube 370, which is already bonded to the capillary tube port 200. The cartridge 150 is then placed back in the instrument 400. The instrument 400 is maintained at 33C. In a preferred embodiment, the cartridge 150 has a bar code that is read by the instrument 400. The instrument 400 will reject the cartridge 150 if the cartridge has been out of the instrument for more than two minutes after the preheating step.
[…] A gel forms and the pumps 350, 351 operate until an end point is reached. […]

The structures appear in SMILES notation.

On to `CC(=O)Oc1ccccc1C(=O)O` [aspirin], for which the “PRT (platelet reactivity time)” value is “greater than 150 seconds”.
